Reference: ChEMBL document CHEMBL1201862, “PubChem BioAssay data set” (2004)
Calls of active or inactive are those of the source.

Experiments:
[1] = biological target: Acyl-homoserine lactone acylase PvdQ (Pseudomonas aeruginosa (strain LESB58), UniProt Q9I194); test: P. aeruginosa PvdQ acylase inhibitors, dose response, biochemical, fluorescence, plate reader and imaging, cherry-picks (AID 493231)
[2] = biological target: Neuropeptides B/W receptor type 1 (Homo sapiens, UniProt P48145); test: Fluorescence-based dose response cell-based high throughput screening assay to identify antagonists of the G-protein coupled receptor 7 (GPR7). [Related pubchem assays: 1952 (Screening assay (GPR7 antagonists).), 1880 (Summary AID.)]; format: functional
[3] = biological target: Melanin-concentrating hormone receptor 1 (Homo sapiens, UniProt Q99705); test: Fluorescence-based counterscreen for antagonists of the G-protein coupled receptor 7 (GPR7): cell-based high throughput dose response assay to identify antagonists of the melanin-concentrating hormone receptor 1 (MCHR1).; format: functional
[4] = tested on: Streptococcus; test: Luminescence Microorganism-Based Dose Response Follow up to Identify Compounds Cytotoxic to Streptococcus. [Related pubchem assays: 1677 (Project Summary), 1915, 1914, 1902 (Retest at Dose), 1900 (Counter Screen), 1662 (Primary HTS)]; format: functional, organism-based
[5] = biological target: T1, Fatty acid synthase (Homo sapiens, UniProt P49327); test: FAS thioesterase domain inhibitors, dose response, biochemical, endpoint fluorescence intensity, uHTS hits (AID 624327); format: functional;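 further: fluorescence from hydrolysis of an O-methyl fluorescein acyl ester substrate by the enzyme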
T1 sequence (P49327 whole entry, the tested form may be a part): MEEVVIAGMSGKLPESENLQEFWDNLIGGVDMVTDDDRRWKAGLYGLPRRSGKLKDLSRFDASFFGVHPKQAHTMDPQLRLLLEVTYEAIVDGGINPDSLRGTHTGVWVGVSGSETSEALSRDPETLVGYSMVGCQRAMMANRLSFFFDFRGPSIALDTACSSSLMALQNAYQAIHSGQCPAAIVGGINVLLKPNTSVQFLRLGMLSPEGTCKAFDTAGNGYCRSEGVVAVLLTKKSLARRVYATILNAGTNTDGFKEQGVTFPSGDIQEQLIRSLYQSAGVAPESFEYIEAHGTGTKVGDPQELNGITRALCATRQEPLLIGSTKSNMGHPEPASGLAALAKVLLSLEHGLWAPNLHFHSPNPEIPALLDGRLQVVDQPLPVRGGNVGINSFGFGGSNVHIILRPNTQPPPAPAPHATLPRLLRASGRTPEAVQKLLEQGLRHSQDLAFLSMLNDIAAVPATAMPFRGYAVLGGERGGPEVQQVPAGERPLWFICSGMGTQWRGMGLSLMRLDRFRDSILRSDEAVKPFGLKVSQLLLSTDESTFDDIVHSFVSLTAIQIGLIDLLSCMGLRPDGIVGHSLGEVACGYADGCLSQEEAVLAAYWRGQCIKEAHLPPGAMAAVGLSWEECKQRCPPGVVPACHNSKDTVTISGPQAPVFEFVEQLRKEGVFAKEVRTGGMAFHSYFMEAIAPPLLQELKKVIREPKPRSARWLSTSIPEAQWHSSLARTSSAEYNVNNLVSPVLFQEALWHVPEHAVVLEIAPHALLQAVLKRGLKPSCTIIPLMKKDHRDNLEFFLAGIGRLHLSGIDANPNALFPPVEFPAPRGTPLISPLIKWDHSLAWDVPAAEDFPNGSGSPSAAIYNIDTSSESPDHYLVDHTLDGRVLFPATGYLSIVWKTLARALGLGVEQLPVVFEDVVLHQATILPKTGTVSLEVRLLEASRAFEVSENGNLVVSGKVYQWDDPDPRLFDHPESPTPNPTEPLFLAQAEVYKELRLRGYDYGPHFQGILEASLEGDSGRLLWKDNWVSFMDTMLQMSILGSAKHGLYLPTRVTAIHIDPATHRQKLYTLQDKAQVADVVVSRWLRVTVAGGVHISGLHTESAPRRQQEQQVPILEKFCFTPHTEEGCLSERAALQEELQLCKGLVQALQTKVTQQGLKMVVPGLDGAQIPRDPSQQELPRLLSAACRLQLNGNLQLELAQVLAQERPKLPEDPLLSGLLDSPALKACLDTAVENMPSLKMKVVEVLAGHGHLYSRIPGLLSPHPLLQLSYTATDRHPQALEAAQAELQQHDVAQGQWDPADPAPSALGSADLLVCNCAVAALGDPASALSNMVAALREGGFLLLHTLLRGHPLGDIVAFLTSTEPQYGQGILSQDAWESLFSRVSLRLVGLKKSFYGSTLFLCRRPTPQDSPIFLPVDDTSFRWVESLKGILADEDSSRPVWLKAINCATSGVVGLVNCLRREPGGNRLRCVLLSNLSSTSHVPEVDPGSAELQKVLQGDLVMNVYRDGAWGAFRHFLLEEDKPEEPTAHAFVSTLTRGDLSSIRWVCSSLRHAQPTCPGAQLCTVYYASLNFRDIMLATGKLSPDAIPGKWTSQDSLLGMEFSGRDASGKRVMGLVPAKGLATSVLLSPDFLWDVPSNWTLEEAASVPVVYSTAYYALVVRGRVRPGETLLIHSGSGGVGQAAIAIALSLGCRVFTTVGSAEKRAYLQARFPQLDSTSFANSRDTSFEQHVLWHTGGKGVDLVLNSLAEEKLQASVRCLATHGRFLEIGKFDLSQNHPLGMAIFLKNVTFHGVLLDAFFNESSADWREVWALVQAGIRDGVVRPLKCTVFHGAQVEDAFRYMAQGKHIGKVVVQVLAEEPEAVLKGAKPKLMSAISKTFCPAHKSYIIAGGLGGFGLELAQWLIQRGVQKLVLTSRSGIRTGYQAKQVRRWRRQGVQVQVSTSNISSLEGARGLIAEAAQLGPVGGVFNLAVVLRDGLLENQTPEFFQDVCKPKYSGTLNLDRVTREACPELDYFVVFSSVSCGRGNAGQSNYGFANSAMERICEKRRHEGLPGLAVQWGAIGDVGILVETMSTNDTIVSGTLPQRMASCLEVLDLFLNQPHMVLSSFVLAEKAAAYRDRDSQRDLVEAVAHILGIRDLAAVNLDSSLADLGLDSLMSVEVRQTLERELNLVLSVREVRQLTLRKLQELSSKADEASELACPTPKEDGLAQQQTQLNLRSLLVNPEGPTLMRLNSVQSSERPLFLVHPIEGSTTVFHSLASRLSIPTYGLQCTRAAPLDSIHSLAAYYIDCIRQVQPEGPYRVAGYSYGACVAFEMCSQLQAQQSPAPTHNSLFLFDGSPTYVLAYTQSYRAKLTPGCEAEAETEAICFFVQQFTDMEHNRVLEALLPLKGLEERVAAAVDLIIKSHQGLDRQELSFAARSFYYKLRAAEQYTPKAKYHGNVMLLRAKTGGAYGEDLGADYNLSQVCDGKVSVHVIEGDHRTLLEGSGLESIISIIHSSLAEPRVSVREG

[6] = biological target: Beta Lactamase (Pseudomonas aeruginosa, UniProt Q932Y6); test: beta-lactamase reporter inhibitor potency, dose response, artefact control for NOD2-RIPK2 interaction inhibitor project, BLA reporter cells, FRET fluorescence (AID 651552); format: functional, cell-based
[7] = tested on: Streptococcus sp. 'group A'; test: growth inhibition of control SK(-) GAS strain, dose response, counter-screen for streptokinase expression inhibitor project, luminescence, kanamycin, BacTiterGlo, confirmation (AID 1900); format: functional, organism-based
[8] = Shn3 3'UTR reporter inhibitors, dose response, cell-based, Clone20 osteoblasts, firefly luciferase, cherry-picked (AID 624132); format: functional;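 further: firefly luciferase luminescence from reporter carrying the Shn3 3'UTR in osteoblasts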
[9] = HepG2 cell cytotoxicity, dose response, cytotoxicity control for Shn3 inhibitor project, CellTiter-Glo, cherry-picked (AID 624134); format: functional, cell-based
[10] = biological target: Heat shock protein HSP 90-alpha (Homo sapiens, UniProt P07900); format: functional, organism-based
[11] = biological target: T2, Streptokinase A (Streptococcus pyogenes serotype M1, UniProt P10520); test: S. pyogenes streptokinase expression inhibitors, potency, dose response, plasminogen activation absorbance, OD405 (AID 1914); format: functional, Streptococcus pyogenes M1 GAS;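 further: secreted streptokinase activity via plasminogen activation per viability signal from cell pellet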
T2 sequence (P10520 whole entry): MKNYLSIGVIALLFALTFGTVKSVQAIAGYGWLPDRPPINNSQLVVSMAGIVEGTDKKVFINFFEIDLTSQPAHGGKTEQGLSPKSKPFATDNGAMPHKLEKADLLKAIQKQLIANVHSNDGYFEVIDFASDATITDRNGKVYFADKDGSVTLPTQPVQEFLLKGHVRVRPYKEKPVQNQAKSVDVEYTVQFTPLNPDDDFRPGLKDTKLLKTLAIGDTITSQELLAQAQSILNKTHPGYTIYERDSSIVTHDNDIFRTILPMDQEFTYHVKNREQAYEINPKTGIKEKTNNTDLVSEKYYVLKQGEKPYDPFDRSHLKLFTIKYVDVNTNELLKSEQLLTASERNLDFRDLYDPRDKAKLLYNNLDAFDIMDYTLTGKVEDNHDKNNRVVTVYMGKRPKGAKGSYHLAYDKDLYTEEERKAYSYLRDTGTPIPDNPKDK

[12] = biological target: T1, Fatty acid synthase; test: FAS thioesterase domain inhibitors, dose response, biochemical, kinetic fluorescence intensity (AID 624326); format: functional;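 further: rate of fluorescence rise from hydrolysis of a fluorogenic O-methyl fluorescein ester substrate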
[13] = control 3'UTR Renilla luciferase suppression, dose response, counter-screen for Shn3 inhibitor project, cell-based, Clone20-Shn3RL, cherry-picked (AID 624133); format: functional
[14] = tested on: Streptococcus; test: Group A Streptococcus viability loss, dose response, counter-screen for streptokinase expression inhibitor project, luminescence, BacTiterGlo (AID 1915); format: functional, organism-based;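 further: potency for reduction of bacterial viability or growth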
[15] = Fluorescence-based cell-based high throughput dose response assay for inhibitors of the interaction of nucleotide-binding oligomerization domain containing 2 (NOD2) and the receptor-interacting serine-threonine kinase 2 (RIPK2).; format: functional; settings: Homo sapiens
[16] = biological target: T3, Aminopeptidase N (Plasmodium falciparum FcB1/Columbia, UniProt O96935); test: P. falciparum M1AAP inhibitors, biochemical, fluorogenic H-Leu-NHMec substrate, 1536-well (AID 1445); design: species or system Plasmodium falciparum 3D7, 3D7
T3 sequence (O96935 whole entry): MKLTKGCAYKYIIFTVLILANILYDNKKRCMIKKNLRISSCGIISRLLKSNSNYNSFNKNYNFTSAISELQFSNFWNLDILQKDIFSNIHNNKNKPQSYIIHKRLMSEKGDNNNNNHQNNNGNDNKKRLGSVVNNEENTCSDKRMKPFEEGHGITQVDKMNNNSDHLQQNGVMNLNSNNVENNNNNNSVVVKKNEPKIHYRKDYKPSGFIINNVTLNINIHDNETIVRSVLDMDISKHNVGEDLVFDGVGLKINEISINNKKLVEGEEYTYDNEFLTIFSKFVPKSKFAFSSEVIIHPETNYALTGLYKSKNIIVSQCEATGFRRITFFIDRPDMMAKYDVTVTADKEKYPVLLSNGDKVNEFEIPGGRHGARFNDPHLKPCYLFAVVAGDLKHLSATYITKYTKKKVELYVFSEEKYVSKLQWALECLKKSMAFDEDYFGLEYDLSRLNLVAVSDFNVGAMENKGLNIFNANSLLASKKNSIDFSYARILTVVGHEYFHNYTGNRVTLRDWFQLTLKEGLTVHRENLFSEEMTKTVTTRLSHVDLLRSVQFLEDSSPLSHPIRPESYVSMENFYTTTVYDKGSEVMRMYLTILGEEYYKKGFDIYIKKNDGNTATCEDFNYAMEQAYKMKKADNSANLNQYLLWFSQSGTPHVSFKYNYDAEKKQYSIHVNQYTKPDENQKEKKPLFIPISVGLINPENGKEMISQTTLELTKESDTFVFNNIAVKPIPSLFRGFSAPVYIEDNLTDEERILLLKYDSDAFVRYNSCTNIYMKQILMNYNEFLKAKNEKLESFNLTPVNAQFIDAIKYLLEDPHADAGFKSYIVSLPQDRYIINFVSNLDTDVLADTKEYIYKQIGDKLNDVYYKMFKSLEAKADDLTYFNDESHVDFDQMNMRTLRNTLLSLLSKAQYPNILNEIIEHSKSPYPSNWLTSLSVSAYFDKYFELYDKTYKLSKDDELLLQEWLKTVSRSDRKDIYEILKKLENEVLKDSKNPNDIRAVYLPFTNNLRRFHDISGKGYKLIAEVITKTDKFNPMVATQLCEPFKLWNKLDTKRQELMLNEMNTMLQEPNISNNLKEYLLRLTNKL

[17] = biological target: T4, Neuropeptide Y receptor type 2 (Homo sapiens, UniProt P49146); test: Fluorescence-based cell-based high-throughput dose response assay for agonists of NPY-Y2. [Related pubchem assays: 1703 (Screening assay (CNGC inhibitors).), 1359 (Screening assay (NPY-Y2 potentiators or agonists).), 1304 (Screening assay (NPY-Y1 potentiators or agonists).), 1710 (Screening assay (NPY-Y2 agonists).), 1791 (Summary AID.)]; format: functional
T4 sequence (P49146 whole entry): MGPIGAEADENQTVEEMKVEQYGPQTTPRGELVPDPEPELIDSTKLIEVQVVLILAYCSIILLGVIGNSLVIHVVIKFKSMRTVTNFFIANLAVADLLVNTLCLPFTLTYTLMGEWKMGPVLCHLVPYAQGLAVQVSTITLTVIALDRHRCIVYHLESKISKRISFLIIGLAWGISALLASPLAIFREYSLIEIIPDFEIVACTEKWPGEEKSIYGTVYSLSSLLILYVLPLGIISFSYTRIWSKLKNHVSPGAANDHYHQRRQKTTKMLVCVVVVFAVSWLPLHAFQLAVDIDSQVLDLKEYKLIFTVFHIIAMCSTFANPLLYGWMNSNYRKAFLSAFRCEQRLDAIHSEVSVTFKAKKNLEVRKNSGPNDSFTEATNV

[18] = biological target: T5, Neuropeptide Y receptor type 1 (Homo sapiens, UniProt P25929); test: Fluorescence-based counterscreen for agonists of NPY-Y2: cell-based high-throughput dose response assay for agonists of NPY-Y1.; format: functional
T5 sequence (P25929 whole entry): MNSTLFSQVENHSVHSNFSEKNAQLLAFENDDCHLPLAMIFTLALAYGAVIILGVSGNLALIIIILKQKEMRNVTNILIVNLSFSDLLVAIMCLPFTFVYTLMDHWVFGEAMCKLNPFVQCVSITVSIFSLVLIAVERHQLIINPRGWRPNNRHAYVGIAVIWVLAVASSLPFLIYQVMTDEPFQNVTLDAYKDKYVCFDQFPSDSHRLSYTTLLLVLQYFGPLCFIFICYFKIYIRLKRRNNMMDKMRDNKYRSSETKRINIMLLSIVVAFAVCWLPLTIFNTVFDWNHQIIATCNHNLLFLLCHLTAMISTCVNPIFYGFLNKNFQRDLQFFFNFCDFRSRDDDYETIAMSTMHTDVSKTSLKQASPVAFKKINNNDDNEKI

[19] = tested on: HEK293; test: Fluorescence-based counterscreen for potentiators or agonists of NPY-Y2: cell-based high-throughput dose response assay to identify inhibitors of cyclic nucleotide gated ion channel (CNGC) activity. In this assay, the parental HEK293 cell line transfected with a cyclic-nucleotide gated ion channel (CNGC)-based cAMP sensor is used to measure inhibition of isoproterenol-induced CNGC activity by test compound.; format: functional; settings: Homo sapiens
[20] = inhibitors of SNCA 5'UTR-driven reporter translation, confirmation, H4 neuroglioma cells, luminescence (AID 1988); format: functional, cell-based
[21] = Luminescence Cell-Based Dose Response HTS to Identify Inhibitors of 5'UTR Stem-Loop Driven Prion Protein mRNA Translation in H4 Neuroglioblastoma Cells. [Related pubchem assays: 1827 (Project Summary), 1813 (Primary HTS)]; format: functional
[22] = biological target: Wee1-like protein kinase (Homo sapiens, UniProt P30291); test: Dose Response Cell-based Assay for Inhibitors of Wee1 Degradation. [Related pubchem assays: 1410, 1321 ]; format: functional
[23] = ZM109 Env clade C HIV-1 fusion inhibitors, dose response, HeLa effector, CEM target cells, luciferase, cherry-pick (AID 652058); format: functional, cell-based
[24] = inhibitors of clade B AD8 Env fusion, dose response, cell-based, cherry-pick (AID 652062); format: functional;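 further: luciferase signal from cell-cell fusion driven by HIV-1 clade B AD8 Env; potency is for inhibitors of fusion seen as a drop in luminescence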
[25] = inhibitors of firefly luciferase expression or activity, dose response, H4 neuroglioma cells, luminescence (AID 1990); format: functional, cell-based
[26] = biological target: G2/mitotic-specific cyclin-B1 (Homo sapiens, UniProt P14635); test: Counterscreen assay for inhibitors of Wee1 degradation: dose response cell-based assay to identify inhibitors of cyclin B degradation. [Related pubchem assays: 1410, 1321 ]; format: functional
[27] = off-target signal loss in HeLa-CEM21 co-culture – HeLa F-luc CTL cells, cherry-picked, counter-screen for HIV-1 Env fusion inhibitor project, dose response (AID 652040); format: functional, cell-based;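 further: potency for signal decrease marking cytotoxic or nonspecific inhibition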
[28] = inhibitors of HIV Env-driven cell fusion, dose response, cherry-pick (AID 652057); format: functional, cell-based
[29] = biological target: Serine/threonine-protein phosphatase PP1-alpha catalytic subunit (Homo sapiens, UniProt P62136); test: PP1 phosphatase inhibitors, dose response, biochemical, fluorescence (AID 2403);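 further: phosphatase turnover of OMFP into fluorescent 3-O-methylfluorescein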
Serine/threonine-protein phosphatase PP1-alpha catalytic subunit, sequence (P62136 whole entry): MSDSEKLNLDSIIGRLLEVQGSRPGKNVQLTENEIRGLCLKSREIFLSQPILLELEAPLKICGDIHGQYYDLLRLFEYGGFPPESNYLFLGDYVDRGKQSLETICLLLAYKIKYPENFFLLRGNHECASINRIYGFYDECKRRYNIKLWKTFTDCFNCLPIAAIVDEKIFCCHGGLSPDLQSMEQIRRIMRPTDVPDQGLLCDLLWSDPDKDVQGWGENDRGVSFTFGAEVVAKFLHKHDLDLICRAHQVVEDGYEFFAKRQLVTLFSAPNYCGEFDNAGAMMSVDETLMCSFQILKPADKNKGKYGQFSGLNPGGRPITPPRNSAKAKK

[30] = biological target: Serine/threonine-protein phosphatase (Homo sapiens, UniProt Q9BPW0); test: Counterscreen for inhibitors of PP1: fluorescence-based biochemical high throughput dose response assay to identify inhibitors of Protein Phosphatase 5 (PP5). [Related pubchem assays: 2034 (Summary (PP5 inhibitors)), 1987 (PP5 inhibitors in singlate), 2235 (PP1 inhibitors in singlate)]
Serine/threonine-protein phosphatase, sequence (Q9BPW0 whole entry): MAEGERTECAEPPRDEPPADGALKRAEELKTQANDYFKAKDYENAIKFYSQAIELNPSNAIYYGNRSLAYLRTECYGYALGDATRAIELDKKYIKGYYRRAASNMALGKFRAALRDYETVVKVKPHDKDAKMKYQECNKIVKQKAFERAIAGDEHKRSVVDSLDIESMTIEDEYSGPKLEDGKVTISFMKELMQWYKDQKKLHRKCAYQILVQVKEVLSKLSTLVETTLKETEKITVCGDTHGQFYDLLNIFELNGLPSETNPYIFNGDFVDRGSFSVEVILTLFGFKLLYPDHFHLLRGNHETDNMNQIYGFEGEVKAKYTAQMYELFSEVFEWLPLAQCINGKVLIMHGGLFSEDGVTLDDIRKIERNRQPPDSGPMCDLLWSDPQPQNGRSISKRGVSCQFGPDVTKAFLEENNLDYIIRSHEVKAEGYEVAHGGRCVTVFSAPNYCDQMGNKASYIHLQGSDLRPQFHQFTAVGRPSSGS

[31] = biological target: T4, Neuropeptide Y receptor type 2; test: Fluorescence-based counterscreen for agonists of NPY-Y1: cell-based high-throughput dose response assay for agonists of NPY-Y2.; format: functional
[32] = biological target: T5, Neuropeptide Y receptor type 1; test: Fluorescence-based dose response cell-based high-throughput screening assay for agonists of NPY-Y1. [Related pubchem assays: 1697 (Screening assay (NPY-Y1 agonists).), 1359 (Screening assay (NPY-Y2 potentiators or agonists).), 1304 (Screening assay (NPY-Y1 potentiators or agonists).), 1704 (Screening assay (CNGC inhibitors).), 1791 (Summary AID.)]; format: functional
[33] = tested on: HEK293; test: Fluorescence-based counterscreen for potentiators or agonists of NPY-Y1: cell-based high-throughput dose response assay for inhibitors of cyclic nucleotide gated ion channel (CNGC) activity. In this assay, the parental HEK293 cell line transfected with a cyclic-nucleotide gated ion channel (CNGC)-based cAMP sensor is used to measure inhibition of isoproterenol-induced CNGC …; format: functional; settings: Homo sapiens
[34] = tested on: Staphylococcus aureus; test: Inhibitors of Bacterial Quorum Sensing Structure Activity Relationship (SAR) Analysis: Dose Response Assay. [Related pubchem assays: 700, 527 ]; format: functional, organism-based

Acyl-homoserine lactone acylase PvdQ, sequence (Q9I194 24-193 limits assumed): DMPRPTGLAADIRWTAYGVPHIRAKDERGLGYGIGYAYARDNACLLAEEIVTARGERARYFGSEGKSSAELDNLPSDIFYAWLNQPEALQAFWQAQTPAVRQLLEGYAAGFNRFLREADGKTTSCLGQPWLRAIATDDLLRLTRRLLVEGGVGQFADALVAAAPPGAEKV
Acyl-homoserine lactone acylase PvdQ, sequence (Q9I194 217-762 limits assumed): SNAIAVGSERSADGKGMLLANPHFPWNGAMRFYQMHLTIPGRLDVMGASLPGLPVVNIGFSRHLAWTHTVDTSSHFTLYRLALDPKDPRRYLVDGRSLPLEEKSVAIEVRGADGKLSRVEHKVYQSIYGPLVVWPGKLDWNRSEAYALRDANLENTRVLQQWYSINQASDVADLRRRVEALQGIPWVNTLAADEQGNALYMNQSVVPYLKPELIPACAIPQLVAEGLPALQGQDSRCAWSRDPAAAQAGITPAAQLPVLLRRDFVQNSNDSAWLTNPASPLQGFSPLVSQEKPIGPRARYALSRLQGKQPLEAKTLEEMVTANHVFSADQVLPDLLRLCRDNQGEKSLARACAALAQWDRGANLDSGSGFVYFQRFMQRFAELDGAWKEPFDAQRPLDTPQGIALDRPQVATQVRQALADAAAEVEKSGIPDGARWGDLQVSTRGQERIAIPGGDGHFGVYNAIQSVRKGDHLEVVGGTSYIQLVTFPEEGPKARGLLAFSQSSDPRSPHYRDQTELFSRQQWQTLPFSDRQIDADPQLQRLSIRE

In the case of CCOC(=O)N1CCN(c2nc3ccccn3c(=O)c2C=O)CC1, the AC50 [1] is reported as 32.9 µM (active).

For CCOC(=O)CNC(c1ccccc1)c1cc(Br)ccc1NC(C)=O (centres undefined), the IC50 [2] was > 43.8 µM (not active) and the IC50 [3] was > 43.8 µM (not active).

In the case of CC[C@@H](C)[C@H](NC(=O)OC(C)(C)C)c1nnc(S(=O)(=O)Cc2cc(C)ccc2C)o1, the EC50 [4] is reported as 33.5 µM (active), the IC50 [5] is reported as 3.33 µM (active) and the IC50 [6] is reported as 15.2 µM (inactive). For the same molecule, the EC50 [7] was 16.2 µM (active), the AC50 [8] was 5.77 µM (active) and the AC50 [9] was 45.1 µM (active). For the same molecule, the AC50 [10] was 4.36 µM (active), the EC50 [11] was 3.43 µM (active) and the IC50 [12] was 4.12 µM (active). The AC50 [13] was 15.4 µM (active), the EC50 [14] was > 150 µM (not active) and the IC50 [15] was 3.12 µM (active).

In the case of COc1ccc(CN2C(=O)/C(=C\Nc3ccccc3C(=O)O)c3ccccc3C2=O)cc1, the IC50 [16] is reported as 24.7 µM (active), the EC50 [17] is reported as > 35.4 µM (not active) and the EC50 [18] is reported as > 11.8 µM (not active). For the same molecule, the EC50 [19] was > 35.4 µM (not active).

With CCOc1cccc(N(C(=O)Cc2cccs2)C(C(=O)NC2CCCCC2)c2cccn2C)c1 (centres undefined) the EC50 [20] was 19.1 µM (active), the EC50 [21] was > 120 µM (not active) and the EC50 [22] was > 49.7 µM (not active). For the same molecule, the AC50 [23] was 24.5 µM (active), the AC50 [24] was 42 µM (active) and the EC50 [25] was 15.1 µM (active). The EC50 [26] was > 49.7 µM (not active), the AC50 [27] was 55.9 µM (active) and the AC50 [28] was 6.74 µM (active).

With COc1cnc(-c2ccccn2)nc1Sc1ccc(F)cc1 the IC50 [29] was 7.21 µM (active) and the IC50 [30] was > 67 µM (not active).

In the case of CN(C)Cc1c(O)ccc2oc(Cc3ccccc3)cc12, the EC50 [31] is reported as > 35.4 µM (not active), the EC50 [32] is reported as 14.7 µM (not active) and the IC50 [33] is reported as > 35.4 µM (not active).

For COc1ccc(CC(=O)Nc2oc(-c3ccccc3)c(-c3ccccc3)c2C#N)cc1, the IC50 [34] was 1.96 µM (active).
